Source: article PMC12675387, “Receptor interaction profiles of 4-alkoxy-2,6-dimethoxyphenethylamines (Ψ derivatives) and related amphetamines” (Frontiers in Pharmacology, 2025)

Legend:
hSERT = hSERT (Homo sapiens, UniProt P31645); experiment: Radioligand binding, SERT ([3H]citalopram)
hDAT = hDAT (Homo sapiens, UniProt Q01959); experiment: Radioligand binding, DAT ([3H]WIN35,428)
rTAAR1 = rTAAR1 (Rattus norvegicus, UniProt Q923Y9); experiment: Radioligand binding, rat TAAR1 ([3H]RO5166017)
hNET = hNET (Homo sapiens, UniProt P23975); experiment: Radioligand binding, NET (N-methyl-[3H]nisoxetine)
hNET, sequence (P23975 whole entry): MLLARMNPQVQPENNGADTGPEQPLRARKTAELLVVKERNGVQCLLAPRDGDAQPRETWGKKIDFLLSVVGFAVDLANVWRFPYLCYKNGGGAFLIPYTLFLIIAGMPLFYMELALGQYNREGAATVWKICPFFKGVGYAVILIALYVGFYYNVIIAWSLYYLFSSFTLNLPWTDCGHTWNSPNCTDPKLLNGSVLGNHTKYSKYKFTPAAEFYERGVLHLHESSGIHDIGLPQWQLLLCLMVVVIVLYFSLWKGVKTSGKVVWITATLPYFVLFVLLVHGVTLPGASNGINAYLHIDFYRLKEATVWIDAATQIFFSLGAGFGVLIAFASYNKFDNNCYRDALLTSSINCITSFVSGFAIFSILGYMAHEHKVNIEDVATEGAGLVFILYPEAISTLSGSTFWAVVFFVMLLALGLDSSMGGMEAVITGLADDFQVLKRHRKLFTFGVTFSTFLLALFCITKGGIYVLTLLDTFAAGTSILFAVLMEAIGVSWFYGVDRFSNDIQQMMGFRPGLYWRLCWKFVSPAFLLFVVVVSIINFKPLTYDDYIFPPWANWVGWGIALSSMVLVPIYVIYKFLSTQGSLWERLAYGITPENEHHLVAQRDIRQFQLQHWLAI

h5-HT2C receptor = molecular target: T1, h5-HT2C receptor (Homo sapiens, UniProt P28335); experiment: Radioligand binding, 5-HT2C receptor ([3H]mesulergine)
T1 sequence (P28335 33-458): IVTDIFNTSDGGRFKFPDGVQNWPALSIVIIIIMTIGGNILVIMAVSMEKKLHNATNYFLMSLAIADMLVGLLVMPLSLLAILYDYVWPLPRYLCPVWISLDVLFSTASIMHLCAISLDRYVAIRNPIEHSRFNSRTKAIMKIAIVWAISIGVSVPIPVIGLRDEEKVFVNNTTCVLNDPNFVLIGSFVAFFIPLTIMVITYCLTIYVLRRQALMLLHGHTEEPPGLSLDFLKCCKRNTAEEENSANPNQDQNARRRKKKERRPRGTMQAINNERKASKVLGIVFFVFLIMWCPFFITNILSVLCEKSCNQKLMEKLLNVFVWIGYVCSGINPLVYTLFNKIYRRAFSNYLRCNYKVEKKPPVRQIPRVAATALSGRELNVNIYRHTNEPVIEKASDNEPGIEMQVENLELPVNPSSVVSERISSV

hα1A adrenergic receptor = molecular target: T2, hα1A adrenergic receptor (Homo sapiens, UniProt P35348); experiment: Radioligand binding, α1A adrenergic receptor ([3H]prazosin); details: hα1A Ki ± SD
T2 sequence (P35348 1-466): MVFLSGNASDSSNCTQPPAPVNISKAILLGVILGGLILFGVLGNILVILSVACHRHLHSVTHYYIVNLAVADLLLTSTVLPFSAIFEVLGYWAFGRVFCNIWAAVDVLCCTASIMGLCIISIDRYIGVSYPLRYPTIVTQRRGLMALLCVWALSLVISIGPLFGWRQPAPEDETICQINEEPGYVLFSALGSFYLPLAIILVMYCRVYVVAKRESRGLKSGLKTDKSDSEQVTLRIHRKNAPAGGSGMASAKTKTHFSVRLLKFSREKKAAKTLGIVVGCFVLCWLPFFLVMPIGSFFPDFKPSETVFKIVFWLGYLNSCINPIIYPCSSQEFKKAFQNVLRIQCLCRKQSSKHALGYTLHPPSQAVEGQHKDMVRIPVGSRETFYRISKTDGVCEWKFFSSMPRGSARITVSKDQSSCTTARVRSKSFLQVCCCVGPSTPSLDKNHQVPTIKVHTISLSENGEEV

hD2 receptor = hD2 receptor (Homo sapiens, UniProt P14416); experiment: Radioligand binding, dopaminergic D2 receptor ([3H]spiperone)
hD2 receptor, sequence (P14416 whole entry): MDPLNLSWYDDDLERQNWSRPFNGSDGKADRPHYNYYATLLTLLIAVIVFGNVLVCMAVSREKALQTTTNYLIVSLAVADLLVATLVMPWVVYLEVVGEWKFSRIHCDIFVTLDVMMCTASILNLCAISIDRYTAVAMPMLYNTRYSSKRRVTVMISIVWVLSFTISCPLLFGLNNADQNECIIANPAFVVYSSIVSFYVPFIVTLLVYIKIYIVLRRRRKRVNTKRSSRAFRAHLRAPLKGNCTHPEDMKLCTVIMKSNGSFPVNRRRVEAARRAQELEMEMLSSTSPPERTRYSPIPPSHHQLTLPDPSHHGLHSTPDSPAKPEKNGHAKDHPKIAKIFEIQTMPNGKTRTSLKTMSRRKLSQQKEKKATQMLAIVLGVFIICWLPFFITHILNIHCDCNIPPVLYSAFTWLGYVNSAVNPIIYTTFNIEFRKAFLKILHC

human TAAR1 = molecular target: T3, human TAAR1 (Homo sapiens, UniProt Q96RJ0); experiment: Activation potency at human TAAR1 (cAMP assay, HEK 293 cells); assay type: cell-based
T3 construct: expressed in transfected cells; host or cells: HEK 293 cells
T3 sequence (Q96RJ0 1-339): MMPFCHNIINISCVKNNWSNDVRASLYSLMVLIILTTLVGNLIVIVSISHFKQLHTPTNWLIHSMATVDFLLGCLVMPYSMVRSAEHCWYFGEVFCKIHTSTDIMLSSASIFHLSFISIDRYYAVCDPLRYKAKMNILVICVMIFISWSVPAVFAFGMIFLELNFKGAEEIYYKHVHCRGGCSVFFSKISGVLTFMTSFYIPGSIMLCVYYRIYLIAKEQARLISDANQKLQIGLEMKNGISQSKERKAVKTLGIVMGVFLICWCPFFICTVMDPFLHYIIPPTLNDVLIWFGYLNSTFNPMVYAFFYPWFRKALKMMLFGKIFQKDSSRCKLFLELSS
Experimental: The activation potency at the human TAAR1 was determined as previously described by [Luethi et al. (2018)]. In summary, recombinant HEK 293 cells stably transfected with the human TAAR1 were grown in culture flasks composed of 30 mL high glucose DMEM with 10% heat inactivated fetal calf serum, […] Geneticin, and […] hygromycin B at 37 °C and 5% CO2. The cells were grown to 80%–90% confluency before collection. The cells were washed with phosphate-buffer saline (PBS) and 5 mL of trypsin/EDTA solution were added for 5 min at 37 °C to detach the cells from the flask. Then, 45 mL of fresh medium were added to the flask and the total mixture was put into a falcon tube, which was centrifuged for 3 min at 900 rpm at room temperature. The supernatant was aspirated, and the remaining cell pellet was resuspended in fresh medium to a concentration of 5 × 10^5 cells per mL. Next, 100 μL of the cell mixture was transferred to a 96 well plate (BIOCOAT 6640, Becton Dickinson, Allschwil, Switzerland) and incubated for 20 h at 37 °C. For the cAMP assay, the medium was removed and replaced with 50 μL PBS lacking calcium or magnesium ions. The PBS was extracted via snap inversion and the plate was gently tapped on tissue to remove any remaining PBS solution. The plate was then incubated with Krebs-Ringer Bicarbonate buffer (90 μL/well; KRB, Sigma-Aldrich) containing 1 mM IBMX for 1 h at 37 °C and 5% CO2/95% air. Test compounds were investigated in duplicate at various concentrations ranging from 300 pM to 30 μM. A cAMP standard curve (concentration range of 0.13 nM–10 μM) was included on each 96 well plate. Additionally, a reference plate was used containing RO5256390, β-phenylethylamine and p-tyramine. Cells were incubated with either 30 μL of compound solution, β-phenylethylamine (which represented the maximal response) or a basal control in PBS (supplemented with 1 mM IBMX) for 40 min at 37 °C. Thereafter, the cells were incubated with 50 μL of 3× detection mix solution (consisting of Ru-cAMP Alexa700 anti-cAMP antibody and lysis buffer) for 40 min at 37 °C, while covered with black lids and under forceful shaking. The fluorescence (456 nm excitation wavelength; 630 and 700 nm emission wavelengths) was measured using a NanoScan reader (Innovate Optische Messtechnik, Berlin, Germany) and the FRET signal was calculated using the following equation: FRET (700 nm) – P × FRET (630 nm). P was equal to Ru (700 nm)/Ru (630 nm).

hDAT, sequence (Q01959 whole entry): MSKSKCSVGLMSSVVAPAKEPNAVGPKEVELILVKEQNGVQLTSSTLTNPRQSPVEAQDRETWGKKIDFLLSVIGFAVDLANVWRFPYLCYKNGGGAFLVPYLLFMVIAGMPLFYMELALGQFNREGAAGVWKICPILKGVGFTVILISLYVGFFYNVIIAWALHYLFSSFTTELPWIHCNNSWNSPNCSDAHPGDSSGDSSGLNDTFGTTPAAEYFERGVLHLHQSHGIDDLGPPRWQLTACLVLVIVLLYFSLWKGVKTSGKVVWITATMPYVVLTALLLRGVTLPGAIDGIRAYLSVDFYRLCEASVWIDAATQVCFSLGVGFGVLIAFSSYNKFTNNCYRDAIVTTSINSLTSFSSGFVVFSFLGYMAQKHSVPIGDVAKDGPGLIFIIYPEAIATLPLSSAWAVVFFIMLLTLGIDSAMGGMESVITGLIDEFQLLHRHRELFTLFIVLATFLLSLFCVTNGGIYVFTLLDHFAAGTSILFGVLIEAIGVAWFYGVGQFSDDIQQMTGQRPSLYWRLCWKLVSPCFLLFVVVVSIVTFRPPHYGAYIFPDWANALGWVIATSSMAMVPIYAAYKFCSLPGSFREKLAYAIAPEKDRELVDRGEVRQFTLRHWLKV
rTAAR1, sequence (Q923Y9 whole entry): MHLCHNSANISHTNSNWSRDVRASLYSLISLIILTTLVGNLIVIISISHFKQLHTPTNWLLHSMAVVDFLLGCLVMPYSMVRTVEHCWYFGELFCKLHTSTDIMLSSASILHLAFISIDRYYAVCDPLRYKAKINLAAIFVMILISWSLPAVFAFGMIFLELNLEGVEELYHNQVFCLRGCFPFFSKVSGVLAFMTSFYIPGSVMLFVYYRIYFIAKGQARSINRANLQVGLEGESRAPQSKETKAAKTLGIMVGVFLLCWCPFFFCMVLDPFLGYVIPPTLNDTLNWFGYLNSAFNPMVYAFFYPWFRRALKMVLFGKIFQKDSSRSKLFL
hSERT, sequence (P31645 whole entry): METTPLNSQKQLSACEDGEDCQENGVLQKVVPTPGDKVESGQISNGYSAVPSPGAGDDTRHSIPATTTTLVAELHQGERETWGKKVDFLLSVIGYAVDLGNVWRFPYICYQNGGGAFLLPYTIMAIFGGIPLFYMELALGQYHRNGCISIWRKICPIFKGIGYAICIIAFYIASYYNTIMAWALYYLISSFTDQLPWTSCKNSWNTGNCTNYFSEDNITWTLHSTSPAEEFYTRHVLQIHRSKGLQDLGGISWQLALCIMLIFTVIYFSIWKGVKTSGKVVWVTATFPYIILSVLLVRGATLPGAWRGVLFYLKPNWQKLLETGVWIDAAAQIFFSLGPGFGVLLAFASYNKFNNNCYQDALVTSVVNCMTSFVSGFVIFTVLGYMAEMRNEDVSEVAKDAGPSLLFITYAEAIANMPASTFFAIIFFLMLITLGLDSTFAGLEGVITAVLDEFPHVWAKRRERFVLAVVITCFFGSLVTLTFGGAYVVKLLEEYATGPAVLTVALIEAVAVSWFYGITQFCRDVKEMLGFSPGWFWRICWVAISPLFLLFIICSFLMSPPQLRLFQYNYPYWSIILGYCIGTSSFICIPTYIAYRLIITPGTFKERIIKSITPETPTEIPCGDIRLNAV

## C=CCOc1cc(OC)c(CC(C)N)c(OC)c1 (stereo not drawn) [Ψ-MALM, 4-allyloxy-2,6-dimethoxyamphetamine]
hSERT; hSERT Ki ± SD, [3H]citalopram
  Ki: > 7.5 µM
hDAT; hDAT Ki ± SD, [3H]WIN35,428
  Ki: > 8.5 µM
rTAAR1
  Ki: 0.058 ± 0.011 µM
hNET
  Ki: > 8.8 µM
h5-HT2C receptor
  Ki: 0.78 ± 0.33 µM
hα1A adrenergic receptor
  Ki: 1.4 µM
hD2 receptor
  Ki: > 6 µM
Human TAAR1
  EC50: > 30 µM

## CCOc1cc(OC)c(CC(C)N)c(OC)c1 (stereo not drawn) [Ψ-MEM, 2,6-dimethoxy-4-ethoxyamphetamine]
hSERT; hSERT Ki ± SD, [3H]citalopram
  Ki: > 7.5 µM
hDAT; hDAT Ki ± SD, [3H]WIN35,428
  Ki: > 8.5 µM
rTAAR1
  Ki: 0.11 ± 0.01 µM
hNET
  Ki: > 8.8 µM
h5-HT2C receptor
  Ki: 5.1 µM
hα1A adrenergic receptor
  Ki: 6.01 µM
hD2 receptor
  Ki: > 6 µM
Human TAAR1
  EC50: 2.2 µM

## COc1cc(OCC(F)F)cc(OC)c1CC(C)N (stereo not drawn) [Ψ-MDFEM, 4-(2,2-difluoroethoxy)-2,6-dimethoxyamphetamine]
hSERT; hSERT Ki ± SD, [3H]citalopram
  Ki: > 7.5 µM
hDAT; hDAT Ki ± SD, [3H]WIN35,428
  Ki: 5.4 µM
rTAAR1
  Ki: 0.066 ± 0.013 µM
hNET
  Ki: > 8.8 µM
h5-HT2C receptor
  Ki: 9.5 µM
hα1A adrenergic receptor
  Ki: 3.9 µM
hD2 receptor
  Ki: > 6 µM
Human TAAR1
  EC50: 0.85 ± 0.5 µM

## COc1cc(OC)c(CC(C)N)c(OC)c1 (stereo not drawn) [TMA-6, 2,4,6-trimethoxyamphetamine]
hSERT; hSERT Ki ± SD, [3H]citalopram
  Ki: > 7.5 µM
hDAT; hDAT Ki ± SD, [3H]WIN35,428
  Ki: > 8.5 µM
rTAAR1
  Ki: 0.18 ± 0.02 µM
hNET
  Ki: > 8.8 µM
h5-HT2C receptor
  Ki: 1.8 µM
hα1A adrenergic receptor
  Ki: > 8.8 µM
hD2 receptor
  Ki: > 6 µM
Human TAAR1
  EC50: > 30 µM

## C=CCOc1cc(OC)c(CCN)c(OC)c1 [Ψ-2C-O-16, 4-allyloxy-2,6-dimethoxyphenethylamine]
hSERT; hSERT Ki ± SD, [3H]citalopram
  Ki: > 7.5 µM
hDAT; hDAT Ki ± SD, [3H]WIN35,428
  Ki: > 8.5 µM
rTAAR1
  Ki: 0.012 µM
hNET
  Ki: > 8.8 µM
h5-HT2C receptor
  Ki: 0.5 ± 0.23 µM
hα1A adrenergic receptor
  Ki: 0.67 ± 0.06 µM
hD2 receptor
  Ki: > 6 µM
Human TAAR1
  EC50: 0.034 ± 0.015 µM

## C=C(C)COc1cc(OC)c(CCN)c(OC)c1 [Ψ-2C-O-3, 2,6-dimethoxy-4-methallyloxyphenethylamine]
hSERT; hSERT Ki ± SD, [3H]citalopram
  Ki: > 7.5 µM
hDAT; hDAT Ki ± SD, [3H]WIN35,428
  Ki: 7.8 µM
rTAAR1
  Ki: 0.0064 ± 0.0011 µM
hNET
  Ki: > 8.8 µM
h5-HT2C receptor
  Ki: 0.21 ± 0.14 µM
hα1A adrenergic receptor
  Ki: 0.99 ± 0.02 µM
hD2 receptor
  Ki: > 6 µM
Human TAAR1
  EC50: 0.1 ± 0.06 µM

## COc1cc(OCc2ccccc2)cc(OC)c1CCN [Ψ-2C-O-27, 4-benzyloxy-2,6-dimethoxyphenethylamine]
hSERT; SERT Ki, no binding observed
  Ki: < 7.5 µM
hSERT; hSERT Ki ± SD, [3H]citalopram
  Ki: > 7.5 µM
hDAT; DAT Ki
  Ki: 1.3 to 1.8 µM
hDAT; hDAT Ki ± SD, [3H]WIN35,428
  Ki: 1.3 µM
rTAAR1
  Ki: 0.0031 ± 0.0002 µM
hNET
  Ki: 6.2 µM
h5-HT2C receptor
  Ki: 0.11 ± 0.01 µM
hα1A adrenergic receptor
  Ki: 3.6 µM
hD2 receptor
  Ki: > 6 µM
Human TAAR1
  EC50: 3 µM

## COc1cc(OC(F)F)cc(OC)c1CCN [Ψ-2C-O-35, 4-(2,2-difluoromethoxy)-2,6-dimethoxyphenethylamine]
hSERT; hSERT Ki ± SD, [3H]citalopram
  Ki: > 7.5 µM
hDAT; hDAT Ki ± SD, [3H]WIN35,428
  Ki: > 8.5 µM
rTAAR1
  Ki: 0.051 ± 0.004 µM
hNET
  Ki: > 8.8 µM
h5-HT2C receptor
  Ki: 0.51 ± 0.14 µM
hα1A adrenergic receptor
  Ki: 2.1 µM
hD2 receptor
  Ki: > 6 µM
Human TAAR1
  EC50: > 30 µM

## COc1cc(OCC(F)F)cc(OC)c1CCN [Ψ-2C-O-21.5, 4-(2,2-difluoroethoxy)-2,6-dimethoxyphenethylamine]
hSERT; hSERT Ki ± SD, [3H]citalopram
  Ki: > 7.5 µM
hDAT; hDAT Ki ± SD, [3H]WIN35,428
  Ki: > 8.5 µM
rTAAR1
  Ki: 0.014 ± 0.003 µM
hNET
  Ki: > 8.8 µM
h5-HT2C receptor
  Ki: 2.8 µM
hα1A adrenergic receptor
  Ki: 2 µM
hD2 receptor
  Ki: > 6 µM
Human TAAR1
  EC50: 0.041 ± 0.009 µM

## COc1cc(OCC(F)(F)F)cc(OC)c1CC(C)N (stereo not drawn) [Ψ-MTFEM, 2,6-dimethoxy-4-(2,2,2-trifluoroethoxy)amphetamine]
hSERT; hSERT Ki ± SD, [3H]citalopram
  Ki: > 7.5 µM
hDAT; hDAT Ki ± SD, [3H]WIN35,428
  Ki: 6.4 µM
rTAAR1
  Ki: 0.11 ± 0.04 µM
hNET
  Ki: > 8.8 µM
h5-HT2C receptor
  Ki: 5.5 µM
hα1A adrenergic receptor
  Ki: 6.1 µM
hD2 receptor
  Ki: > 6 µM
Human TAAR1
  EC50: 1.1 µM

## COc1cc(OC(F)F)cc(OC)c1CC(C)N (stereo not drawn) [Ψ-DODFMO, 4-(2,2-difluoromethoxy)-2,6-dimethoxyamphetamine]
hSERT; hSERT Ki ± SD, [3H]citalopram
  Ki: > 7.5 µM
hDAT; hDAT Ki ± SD, [3H]WIN35,428
  Ki: > 8.5 µM
rTAAR1
  Ki: 0.14 ± 0.04 µM
hNET
  Ki: > 8.8 µM
h5-HT2C receptor
  Ki: 1.8 µM
hα1A adrenergic receptor
  Ki: 5.9 µM
hD2 receptor
  Ki: > 6 µM
Human TAAR1
  EC50: > 30 µM

## COc1cc(OCCF)cc(OC)c1CCN [Ψ-2C-O-21, 2,6-dimethoxy-4-(2-fluoroethoxy)phenethylamine]
hSERT; hSERT Ki ± SD, [3H]citalopram
  Ki: > 7.5 µM
hDAT; hDAT Ki ± SD, [3H]WIN35,428
  Ki: > 8.5 µM
rTAAR1
  Ki: 0.019 ± 0.001 µM
hNET
  Ki: > 8.8 µM
h5-HT2C receptor
  Ki: 3.5 µM
hα1A adrenergic receptor
  Ki: 4.6 µM
hD2 receptor
  Ki: > 6 µM
Human TAAR1
  EC50: 0.08 ± 0.043 µM

## CCOc1cc(OC)c(CCN)c(OC)c1 [Ψ-2C-O-2, 2,6-dimethoxy-4-ethoxyphenethylamine]
hSERT; hSERT Ki ± SD, [3H]citalopram
  Ki: > 7.5 µM
hDAT; hDAT Ki ± SD, [3H]WIN35,428
  Ki: > 8.5 µM
hNET
  Ki: > 8.8 µM
h5-HT2C receptor
  Ki: 1.5 µM
hα1A adrenergic receptor
  Ki: 3.3 µM
hD2 receptor
  Ki: > 6 µM
Human TAAR1
  EC50: 0.23 ± 0.17 µM
